Data published in ChEMBL document CHEMBL5725665, “Pyrazolopyridines and pyrazolopyrimidines” (2018).

The compounds below were run against Non-receptor tyrosine-protein kinase TYK2 (Homo sapiens, UniProt P29597) (assay: (§1) JAK Caliper Enzyme Assay at 1 mM ATP: Test article was solubilized in dimethyl sulfoxide (DMSO) to a stock concentration of 30 mM. An 11-point half log dilution series was created in DMSO with a top concentration of 600 μM. […] The compound plates were diluted 1 to 60 resulting in a top final assay compound concentration of 10 μM and a 2% DMSO concentration.Test article and assay controls were added to a 384-well plate. Reaction mixtures contained 20 mM HEPES, pH 7.4, 10 mM magnesium chloride, 0.01% bovine serum albumin (BSA), 0.0005% Tween 20, 1 mM ATP and 1 μM peptide substrate. The JAK1 and TYK2 assays contained 1 μM of the IRStide peptide (5FAM-[…]) and the JAK2 and JAK3 assays contained 1 μM of the JAKtide peptide (FITC-[…]). […] Enzyme concentrations and incubation times were optimized for each new enzyme preps and were modified slightly over time to ensure 20%-30% phosphorylation. The assays were stopped with a final concentration of 10 mM EDTA, 0.1% Coating Reagent and 100 mM HEPES, pH=7.4. The assay plates were placed on a Caliper Life Science Lab Chip 3000 (LC3000) instrument, and each well was sampled using appropriate separation conditions to measure the unphosphorylated and phosphorylated peptide.).
Chain of Non-receptor tyrosine-protein kinase TYK2 (P29597 whole entry): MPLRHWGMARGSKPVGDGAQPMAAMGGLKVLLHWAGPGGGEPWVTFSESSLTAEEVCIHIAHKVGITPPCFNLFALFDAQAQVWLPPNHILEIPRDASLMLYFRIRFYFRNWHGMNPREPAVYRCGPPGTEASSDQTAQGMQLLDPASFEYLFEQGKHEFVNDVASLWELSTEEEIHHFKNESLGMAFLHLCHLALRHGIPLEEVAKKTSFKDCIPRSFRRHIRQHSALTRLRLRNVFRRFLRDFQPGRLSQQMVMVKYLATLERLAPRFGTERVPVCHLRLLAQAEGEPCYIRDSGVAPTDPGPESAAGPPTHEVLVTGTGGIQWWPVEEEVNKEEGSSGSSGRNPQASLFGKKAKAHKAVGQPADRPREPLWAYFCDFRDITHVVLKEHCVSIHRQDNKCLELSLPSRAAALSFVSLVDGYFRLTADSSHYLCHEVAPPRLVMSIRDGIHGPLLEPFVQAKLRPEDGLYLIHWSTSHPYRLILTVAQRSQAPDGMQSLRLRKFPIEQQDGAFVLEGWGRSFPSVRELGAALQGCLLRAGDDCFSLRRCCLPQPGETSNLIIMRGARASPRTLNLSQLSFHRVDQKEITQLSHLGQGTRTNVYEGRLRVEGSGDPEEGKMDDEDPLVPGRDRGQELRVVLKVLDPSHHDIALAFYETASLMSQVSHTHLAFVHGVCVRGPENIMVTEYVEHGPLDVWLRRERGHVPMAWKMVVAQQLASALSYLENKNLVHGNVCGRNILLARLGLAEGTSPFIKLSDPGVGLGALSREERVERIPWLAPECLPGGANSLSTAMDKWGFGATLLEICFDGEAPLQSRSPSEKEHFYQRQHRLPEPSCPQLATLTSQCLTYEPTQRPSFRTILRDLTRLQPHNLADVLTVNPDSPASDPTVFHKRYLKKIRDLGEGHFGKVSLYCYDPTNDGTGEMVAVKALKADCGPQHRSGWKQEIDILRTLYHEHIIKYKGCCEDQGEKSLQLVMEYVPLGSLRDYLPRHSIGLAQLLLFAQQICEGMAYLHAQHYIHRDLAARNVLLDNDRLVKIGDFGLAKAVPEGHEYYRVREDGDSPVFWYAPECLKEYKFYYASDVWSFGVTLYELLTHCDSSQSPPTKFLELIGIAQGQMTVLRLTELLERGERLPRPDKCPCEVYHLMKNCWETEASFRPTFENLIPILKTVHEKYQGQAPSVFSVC
Compound `Cc1nnc(-c2n[nH]c3cc(-c4cc(F)c(O)cc4CC(F)(F)F)nc(NCc4ccccc4N(C)S(C)(=O)=O)c23)[nH]1` has an IC50 of 150 nM.
`CCc1cc(O)ccc1-c1cc2[nH]ncc2c(N2CC(Oc3ccccc3)C2)n1` was tested, and the IC50 was 5170 nM.
`CN(c1ccc(O)cc1CNc1nc(-c2cc(F)c(O)cc2CC(F)(F)F)nc2[nH]nc(C(N)=O)c12)S(C)(=O)=O` gave an IC50 of 373 nM.
For `CN(c1ccc(O)cc1CNc1nc(-c2cc(F)c(O)cc2CC(F)(F)F)nc2[nH]nc(-c3nc4c([nH]3)CCNC4)c12)S(C)(=O)=O`, the IC50 was 68.6 nM.
`CS(=O)(=O)N(CCO)c1ccccc1CNc1nc(-c2cc(F)c(O)cc2CC(F)(F)F)cc2[nH]nc(C(N)=O)c12` was tested, and the IC50 was 48.8 nM.
For `CN(c1ccccc1CNc1nc(-c2cc(F)c(O)cc2CC(F)(F)F)nc2[nH]nc(-c3nnc(C4CCN(C(=O)CN5CCCC5)CC4)[nH]3)c12)S(C)(=O)=O`, the IC50 was 2260 nM.
`CCc1cc(O)ccc1-c1cc2[nH]ncc2c(NCCc2ccc(-c3ccccc3)cc2)n1` gave an IC50 of 4230 nM.

The compounds below were run against Tyrosine-protein kinase JAK1 (Homo sapiens, UniProt P23458) (assay: as §1).
Chain of Tyrosine-protein kinase JAK1 (P23458 whole entry): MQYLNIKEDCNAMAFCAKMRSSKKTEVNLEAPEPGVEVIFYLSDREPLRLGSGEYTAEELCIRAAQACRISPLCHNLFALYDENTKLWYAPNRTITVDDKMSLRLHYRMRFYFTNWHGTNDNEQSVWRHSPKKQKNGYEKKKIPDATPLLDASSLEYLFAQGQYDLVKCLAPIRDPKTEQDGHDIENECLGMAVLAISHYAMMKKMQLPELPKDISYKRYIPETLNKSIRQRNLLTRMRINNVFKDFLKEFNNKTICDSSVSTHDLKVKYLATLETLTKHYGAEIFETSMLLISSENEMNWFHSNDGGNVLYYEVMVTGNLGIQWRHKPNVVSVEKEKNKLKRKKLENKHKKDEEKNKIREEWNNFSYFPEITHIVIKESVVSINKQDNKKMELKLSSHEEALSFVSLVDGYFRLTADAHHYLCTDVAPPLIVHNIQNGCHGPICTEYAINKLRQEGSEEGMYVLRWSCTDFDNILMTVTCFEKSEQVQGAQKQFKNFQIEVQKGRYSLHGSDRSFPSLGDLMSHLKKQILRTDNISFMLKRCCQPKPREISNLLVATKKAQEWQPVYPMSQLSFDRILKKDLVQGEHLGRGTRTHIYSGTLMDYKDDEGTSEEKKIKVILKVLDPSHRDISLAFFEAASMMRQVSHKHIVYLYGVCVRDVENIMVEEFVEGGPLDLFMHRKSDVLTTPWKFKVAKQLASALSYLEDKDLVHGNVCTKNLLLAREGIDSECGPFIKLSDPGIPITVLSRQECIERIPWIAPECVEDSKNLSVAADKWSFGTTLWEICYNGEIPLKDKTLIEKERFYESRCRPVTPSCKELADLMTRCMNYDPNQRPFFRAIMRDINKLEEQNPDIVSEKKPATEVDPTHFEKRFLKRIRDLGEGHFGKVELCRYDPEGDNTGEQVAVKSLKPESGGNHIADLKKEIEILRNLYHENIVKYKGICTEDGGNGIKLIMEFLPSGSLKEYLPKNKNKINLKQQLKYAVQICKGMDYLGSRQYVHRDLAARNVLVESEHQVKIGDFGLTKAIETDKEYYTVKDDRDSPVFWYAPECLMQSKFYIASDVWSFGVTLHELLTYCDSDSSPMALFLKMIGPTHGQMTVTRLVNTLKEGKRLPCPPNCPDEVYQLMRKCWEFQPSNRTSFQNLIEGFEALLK
`Cc1nnc(-c2n[nH]c3cc(-c4cc(F)c(O)cc4CC(F)(F)F)nc(NCc4ccccc4N(C)S(C)(=O)=O)c23)[nH]1` was tested, and the IC50 was 27.5 nM.
Compound `CCc1cc(O)ccc1-c1cc2[nH]ncc2c(N2CC(Oc3ccccc3)C2)n1` has an IC50 of 12.1 nM.
`CN(c1ccc(O)cc1CNc1nc(-c2cc(F)c(O)cc2CC(F)(F)F)nc2[nH]nc(C(N)=O)c12)S(C)(=O)=O` gave an IC50 of 3.2 nM.
In the case of `CN(c1ccc(O)cc1CNc1nc(-c2cc(F)c(O)cc2CC(F)(F)F)nc2[nH]nc(-c3nc4c([nH]3)CCNC4)c12)S(C)(=O)=O`, the IC50 is reported as 5.6 nM.
Compound `CS(=O)(=O)N(CCO)c1ccccc1CNc1nc(-c2cc(F)c(O)cc2CC(F)(F)F)cc2[nH]nc(C(N)=O)c12` has an IC50 of 2.9 nM.
In the case of `CN(c1ccccc1CNc1nc(-c2cc(F)c(O)cc2CC(F)(F)F)nc2[nH]nc(-c3nnc(C4CCN(C(=O)CN5CCCC5)CC4)[nH]3)c12)S(C)(=O)=O`, the IC50 is reported as 16.8 nM.
For `CCc1cc(O)ccc1-c1cc2[nH]ncc2c(NCCc2ccc(-c3ccccc3)cc2)n1`, the IC50 was 87.6 nM.

These compounds were tested against T1, Tyrosine-protein kinase JAK3 (Homo sapiens, UniProt P52333) (assay: as §1).
T1 sequence (P52333 whole entry): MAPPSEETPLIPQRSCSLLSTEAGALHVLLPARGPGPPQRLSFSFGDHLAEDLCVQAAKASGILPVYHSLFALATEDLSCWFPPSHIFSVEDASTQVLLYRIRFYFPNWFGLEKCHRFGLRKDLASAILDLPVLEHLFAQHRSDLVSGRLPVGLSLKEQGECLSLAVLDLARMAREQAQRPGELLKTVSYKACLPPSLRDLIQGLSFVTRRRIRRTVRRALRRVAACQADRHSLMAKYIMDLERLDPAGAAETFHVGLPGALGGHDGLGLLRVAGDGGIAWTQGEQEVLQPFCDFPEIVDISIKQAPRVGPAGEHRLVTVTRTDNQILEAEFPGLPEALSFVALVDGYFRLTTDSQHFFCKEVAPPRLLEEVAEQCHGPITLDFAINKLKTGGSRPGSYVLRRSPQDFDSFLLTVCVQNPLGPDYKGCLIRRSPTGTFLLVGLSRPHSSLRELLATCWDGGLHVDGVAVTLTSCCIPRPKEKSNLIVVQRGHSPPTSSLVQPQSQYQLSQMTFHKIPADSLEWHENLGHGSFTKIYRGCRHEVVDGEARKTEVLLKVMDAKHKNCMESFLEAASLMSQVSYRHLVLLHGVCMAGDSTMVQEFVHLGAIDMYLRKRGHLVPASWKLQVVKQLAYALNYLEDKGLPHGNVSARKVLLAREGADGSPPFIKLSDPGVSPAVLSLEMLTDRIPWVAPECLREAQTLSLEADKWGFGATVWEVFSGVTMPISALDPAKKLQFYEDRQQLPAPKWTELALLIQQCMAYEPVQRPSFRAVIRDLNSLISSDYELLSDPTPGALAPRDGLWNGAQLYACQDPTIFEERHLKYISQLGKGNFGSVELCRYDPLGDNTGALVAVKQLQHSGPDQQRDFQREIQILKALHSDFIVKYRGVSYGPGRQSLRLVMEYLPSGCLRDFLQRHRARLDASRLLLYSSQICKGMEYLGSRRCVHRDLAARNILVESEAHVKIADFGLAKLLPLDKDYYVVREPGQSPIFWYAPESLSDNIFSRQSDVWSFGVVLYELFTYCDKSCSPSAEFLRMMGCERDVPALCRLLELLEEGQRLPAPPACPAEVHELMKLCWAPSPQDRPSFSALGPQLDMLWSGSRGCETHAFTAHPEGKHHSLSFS
Work on `Cc1nnc(-c2n[nH]c3cc(-c4cc(F)c(O)cc4CC(F)(F)F)nc(NCc4ccccc4N(C)S(C)(=O)=O)c23)[nH]1` yielded an IC50 of 429 nM.
For `CCc1cc(O)ccc1-c1cc2[nH]ncc2c(N2CC(Oc3ccccc3)C2)n1`, the IC50 was 67.5 nM.
Work on `CN(c1ccc(O)cc1CNc1nc(-c2cc(F)c(O)cc2CC(F)(F)F)nc2[nH]nc(C(N)=O)c12)S(C)(=O)=O` yielded an IC50 of 38 nM.
`CN(c1ccc(O)cc1CNc1nc(-c2cc(F)c(O)cc2CC(F)(F)F)nc2[nH]nc(-c3nc4c([nH]3)CCNC4)c12)S(C)(=O)=O` gave an IC50 of 111 nM.
Compound `CS(=O)(=O)N(CCO)c1ccccc1CNc1nc(-c2cc(F)c(O)cc2CC(F)(F)F)cc2[nH]nc(C(N)=O)c12` has an IC50 of 53.5 nM.
With `CN(c1ccccc1CNc1nc(-c2cc(F)c(O)cc2CC(F)(F)F)nc2[nH]nc(-c3nnc(C4CCN(C(=O)CN5CCCC5)CC4)[nH]3)c12)S(C)(=O)=O` the IC50 was 158 nM.
With `CCc1cc(O)ccc1-c1cc2[nH]ncc2c(NCCc2ccc(-c3ccccc3)cc2)n1` the IC50 was 157 nM.

These compounds were tested against Tyrosine-protein kinase JAK2 (Homo sapiens, UniProt O60674) (assay: JAK Caliper Enzyme Assay at 1 mM ATP: Test article was solubilized in dimethyl sulfoxide (DMSO) to a stock concentration of 30 mM. An 11-point half log dilution series was created in DMSO with a top concentration of 600 μM. […] The compound plates were diluted 1 to 60 resulting in a top final assay compound concentration of 10 μM and a 2% DMSO concentration.Test article and assay controls were added to a 384-well plate. Reaction mixtures contained 20 mM HEPES, pH 7.4, 10 mM magnesium chloride, 0.01% bovine serum albumin (BSA), 0.0005% Tween 20, 1 mM ATP and 1 μM peptide substrate. […] Enzyme concentrations and incubation times were optimized for each new enzyme preps and were modified slightly over time to ensure 20%-30% phosphorylation. The assays were stopped with a final concentration of 10 mM EDTA, 0.1% Coating Reagent and 100 mM HEPES, pH=7.4. The assay plates were placed on a Caliper Life Science Lab Chip 3000 (LC3000) instrument, and each well was sampled using appropriate separation conditions to measure the unphosphorylated and phosphorylated peptide.).
Chain of Tyrosine-protein kinase JAK2 (O60674 whole entry): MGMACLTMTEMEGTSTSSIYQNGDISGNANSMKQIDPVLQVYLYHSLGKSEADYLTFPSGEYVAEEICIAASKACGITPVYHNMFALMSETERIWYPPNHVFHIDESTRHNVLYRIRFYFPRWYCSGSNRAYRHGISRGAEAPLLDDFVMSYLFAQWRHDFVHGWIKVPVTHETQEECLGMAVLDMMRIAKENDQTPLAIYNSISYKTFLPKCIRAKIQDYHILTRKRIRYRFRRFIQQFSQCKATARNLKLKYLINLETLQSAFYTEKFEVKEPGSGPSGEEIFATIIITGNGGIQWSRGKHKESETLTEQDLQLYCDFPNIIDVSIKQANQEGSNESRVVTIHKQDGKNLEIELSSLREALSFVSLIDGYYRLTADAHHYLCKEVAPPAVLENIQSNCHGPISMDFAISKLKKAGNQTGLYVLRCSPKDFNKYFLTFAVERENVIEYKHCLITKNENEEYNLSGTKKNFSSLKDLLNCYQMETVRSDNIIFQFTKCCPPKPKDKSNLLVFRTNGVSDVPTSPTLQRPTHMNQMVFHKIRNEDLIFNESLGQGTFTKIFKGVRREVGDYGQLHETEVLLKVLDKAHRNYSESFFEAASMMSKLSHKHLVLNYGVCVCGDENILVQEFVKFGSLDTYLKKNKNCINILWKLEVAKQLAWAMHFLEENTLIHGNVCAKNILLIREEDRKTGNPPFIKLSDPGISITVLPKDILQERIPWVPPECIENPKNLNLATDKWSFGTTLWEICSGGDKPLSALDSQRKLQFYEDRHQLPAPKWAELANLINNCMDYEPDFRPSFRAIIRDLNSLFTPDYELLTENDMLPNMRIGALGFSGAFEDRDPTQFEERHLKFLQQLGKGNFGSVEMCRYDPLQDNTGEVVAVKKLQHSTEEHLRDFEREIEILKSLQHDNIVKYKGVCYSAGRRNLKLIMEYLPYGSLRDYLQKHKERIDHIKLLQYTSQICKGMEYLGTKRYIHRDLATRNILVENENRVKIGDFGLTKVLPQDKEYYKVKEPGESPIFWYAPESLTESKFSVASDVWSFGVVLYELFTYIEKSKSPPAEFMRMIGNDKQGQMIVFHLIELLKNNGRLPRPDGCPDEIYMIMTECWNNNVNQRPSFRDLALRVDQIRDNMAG
Work on `Cc1nnc(-c2n[nH]c3cc(-c4cc(F)c(O)cc4CC(F)(F)F)nc(NCc4ccccc4N(C)S(C)(=O)=O)c23)[nH]1` yielded an IC50 of 129 nM.
In the case of `CCc1cc(O)ccc1-c1cc2[nH]ncc2c(N2CC(Oc3ccccc3)C2)n1`, the IC50 is reported as 82.9 nM.
`CN(c1ccc(O)cc1CNc1nc(-c2cc(F)c(O)cc2CC(F)(F)F)nc2[nH]nc(C(N)=O)c12)S(C)(=O)=O` was tested, and the IC50 was 12.7 nM.
With `CN(c1ccc(O)cc1CNc1nc(-c2cc(F)c(O)cc2CC(F)(F)F)nc2[nH]nc(-c3nc4c([nH]3)CCNC4)c12)S(C)(=O)=O` the IC50 was 35.3 nM.
With `CS(=O)(=O)N(CCO)c1ccccc1CNc1nc(-c2cc(F)c(O)cc2CC(F)(F)F)cc2[nH]nc(C(N)=O)c12` the IC50 was 14.7 nM.
`CN(c1ccccc1CNc1nc(-c2cc(F)c(O)cc2CC(F)(F)F)nc2[nH]nc(-c3nnc(C4CCN(C(=O)CN5CCCC5)CC4)[nH]3)c12)S(C)(=O)=O` gave an IC50 of 54.3 nM.
In the case of `CCc1cc(O)ccc1-c1cc2[nH]ncc2c(NCCc2ccc(-c3ccccc3)cc2)n1`, the IC50 is reported as 183 nM.
